From paper PMC10285409, “Identification and validation of G protein-coupled receptors modulating flow-dependent signaling pathways in vascular endothelial cells” (Frontiers in Molecular Biosciences, 2023)

Biological target: T1, LGR4 (Homo sapiens, UniProt Q9BXB1)
T1 sequence (Q9BXB1 25-951): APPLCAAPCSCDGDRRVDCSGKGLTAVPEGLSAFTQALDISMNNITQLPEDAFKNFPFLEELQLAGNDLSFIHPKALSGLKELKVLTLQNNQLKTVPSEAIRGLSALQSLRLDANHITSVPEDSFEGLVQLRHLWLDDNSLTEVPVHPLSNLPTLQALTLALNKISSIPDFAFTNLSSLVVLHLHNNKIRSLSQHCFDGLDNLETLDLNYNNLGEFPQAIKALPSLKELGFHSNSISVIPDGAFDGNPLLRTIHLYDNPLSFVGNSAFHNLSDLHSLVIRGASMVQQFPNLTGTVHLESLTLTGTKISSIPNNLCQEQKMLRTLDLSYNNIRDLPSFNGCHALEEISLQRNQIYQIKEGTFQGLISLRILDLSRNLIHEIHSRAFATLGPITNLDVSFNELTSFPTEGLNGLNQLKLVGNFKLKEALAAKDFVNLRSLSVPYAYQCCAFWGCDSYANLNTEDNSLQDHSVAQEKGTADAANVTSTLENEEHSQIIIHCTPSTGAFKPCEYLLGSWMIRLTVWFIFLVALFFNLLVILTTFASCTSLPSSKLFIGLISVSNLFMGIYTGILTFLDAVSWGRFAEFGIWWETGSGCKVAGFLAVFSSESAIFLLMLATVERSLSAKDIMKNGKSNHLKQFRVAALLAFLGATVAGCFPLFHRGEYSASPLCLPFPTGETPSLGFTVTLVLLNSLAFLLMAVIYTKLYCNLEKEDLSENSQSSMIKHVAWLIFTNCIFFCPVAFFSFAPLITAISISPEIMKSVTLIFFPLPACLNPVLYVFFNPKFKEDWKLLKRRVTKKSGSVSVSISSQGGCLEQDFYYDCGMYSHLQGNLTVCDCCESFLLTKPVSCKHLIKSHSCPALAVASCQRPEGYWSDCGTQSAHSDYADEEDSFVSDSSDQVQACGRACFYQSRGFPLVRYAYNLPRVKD
Assay: beta-arrestin recruitment enzyme complementation in CHO-K1 LGR4 cells; KLF2-luciferase activity lost on LGR4 knockdown
Format: cell-based

Structure (SMILES) | EC50 [µM]
CCCCN(Cc1ccc(-c2ccccc2-c2nnn[nH]2)cc1)C(=O)NCc1ccc(Cl)cc1 [Compound 1] | 27
CCCCOC(=O)c1c(Cl)nc(CCCC)n1Cc1cccc2c1ccn2-c1ccccc1-c1nn[nH]n1 [Compound 2] | 5
